Laboratory results from PubChem BioAssay (NCI).
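48-hour exposure; five concentrations; linearly interpolated endpoints. TGI: concentration producing complete growth inhibition.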

Legend:
Experiment in all cases: NCI-60 cell line screen, 48 h
HCT-116 colon = test system: HCT-116 colon
NCI-H23 lung = test system: NCI-H23 lung
SK-MEL-5 melanoma = test system: SK-MEL-5 melanoma
NCI-H226 lung = test system: NCI-H226 lung
MALME-3M melanoma = test system: MALME-3M melanoma
CAKI-1 renal = test system: CAKI-1 renal
SF-268 CNS = test system: SF-268 CNS
M14 melanoma = test system: M14 melanoma
HL-60(TB) leukemia = test system: HL-60(TB) leukemia
MDA-N = test system: MDA-N

| SMILES | TGI (HCT-116 colon) | TGI (NCI-H23 lung) | TGI (SK-MEL-5 melanoma) | TGI (NCI-H226 lung) | TGI (MALME-3M melanoma) | TGI (CAKI-1 renal) | TGI (SF-268 CNS) | TGI (M14 melanoma) | TGI (HL-60(TB) leukemia) | TGI (MDA-N) |
| --- | --- | --- | --- | --- | --- | --- | --- | --- | --- | --- |
| COC(c1ccsc1)C(C#N)(C#N)N=Cc1ccsc1 (stereo not given) | 25.4 µM | 26.2 µM | 27.7 µM | 54.9 µM | 29.8 µM | 19.2 µM | 33.8 µM | 33.7 µM | 16.2 µM | 33.4 µM |
| COC(=O)c1c(OC(C)=O)ccc2c1c1c(OC(C)=O)c3ccccc3c(OC(C)=O)c1n2Cc1cc(OC)cc(OC)c1 | 78.3 µM | > 100 µM | 24.3 µM | > 100 µM | 70.6 µM | > 100 µM | > 100 µM | > 100 µM | > 100 µM | 81.4 µM |
| Nc1ccc2c(c1)C1Oc3ccccc3CC1CO2 (stereo not given) | > 100 µM | > 100 µM | > 100 µM | > 100 µM | > 100 µM | > 100 µM | > 100 µM | > 100 µM | > 100 µM | > 100 µM |
| O=C(O)Cc1ccc(Oc2nc3ccccc3nc2-c2cccs2)cc1 | > 100 µM | > 100 µM | > 100 µM | > 100 µM | > 100 µM | > 100 µM | > 100 µM | > 100 µM | > 100 µM | > 100 µM |
| COc1c(-c2cc(C)c(Cl)c(=O)[nH]2)c(O)c(OC)c2occc12 | > 100 µM | > 100 µM | > 100 µM | > 100 µM | > 100 µM | > 100 µM | > 100 µM | > 100 µM | > 100 µM | > 100 µM |
| CCOC(=O)c1ccc(-c2cc(C)[nH]n2)[nH]1 | > 100 µM | > 100 µM | > 100 µM | > 100 µM | > 100 µM | > 100 µM | > 100 µM | > 100 µM | > 100 µM | > 100 µM |
| O=C(CCc1cccc(O)c1)NCCc1cccc(O)c1 | > 100 µM | > 100 µM | > 100 µM | > 100 µM | > 100 µM | > 100 µM | > 100 µM | > 100 µM | > 100 µM | > 100 µM |
| N/C(=N\N=C\c1ccc2c(c1)OCO2)NO | 59.8 µM | 98.8 µM | 35.2 µM | 40.8 µM | 86.8 µM | > 100 µM | 75.4 µM | 32.5 µM | 36 µM | > 100 µM |
| COc1c2occc2c(OC)c2c(=O)c(S(=O)(=O)NC(=O)Nc3ccc(Cl)cc3)coc12 | > 10 µM | > 10 µM | > 10 µM | > 10 µM | > 10 µM | > 10 µM | > 10 µM | > 10 µM | > 10 µM | > 10 µM |
| Cc1cc(NS(=O)(=O)c2ccc(NC(=O)c3ccc4nc5ccccc5c(Nc5ccc(S(=O)(=O)N=C(N)N)cc5)c4c3)cc2)no1 | 35.6 µM | 38.6 µM | 30.5 µM | 28.5 µM | 29.4 µM | 33.6 µM | 37.3 µM | 34.6 µM | 46.2 µM | 41.4 µM |
| CC1(C)C2CCC1(CS(=O)(=O)Nc1ccccc1)C(=O)C2 (stereo not given) | > 100 µM | > 100 µM | > 100 µM | > 100 µM | > 100 µM | > 100 µM | > 100 µM | > 100 µM | > 100 µM | > 100 µM |
| COc1cc2c(cc1OCCCC(=O)Nc1cc(C(=O)Nc3cc(C(=O)Nc4cc(C(=O)NCCCN(C)C)n(C)c4)n(C)c3)n(C)c1)N=C[C@@H]1CCCN1C2=O | 3.45 µM | 4.4 µM | 6.65 µM | 37.9 µM | 3.39 µM | 1.26 µM | 3.31 µM | 3.11 µM | 3.42 µM | 3.8 µM |
| Cc1cc2c(cc1-c1cc3c(cc1C)C(C(C)C)=C(O)C(=O)/C3=C\Nc1nc(-c3ccccc3)cs1)/C(=C/Nc1nc(-c3ccccc3)cs1)C(=O)C(O)=C2C(C)C | > 100 µM | 28.8 µM | 31.4 µM | 58.4 µM | > 100 µM | > 100 µM | 72 µM | 30.1 µM | > 100 µM | > 100 µM |
| COc1cc(C2c3cc4c(cc3C(O)C3CCC(=O)N23)OCO4)cc(OC)c1OC (stereo not given) | > 100 µM | > 100 µM | > 100 µM | 79.3 µM | > 100 µM | > 100 µM | > 100 µM | > 100 µM | 55.1 µM | 38.2 µM |
